Measured values taken from patent US6110967A, “Epoxysuccinamide derivative or salt thereof” (Taiho Pharmaceuticals Co., Ltd., priority 1997, dated 2000).
Where a name gives a salt, the structure may show the parent alone.

Key:
Cathepsin B = target: T1, Cathepsin B (Rattus norvegicus, UniProt P00787); test: Determination of inhibition activity against cathepsin B (substrate Z-Arg-Arg-MCA); type: biochemical; details: cathepsin B purified from rat liver, pH 5.5, 30° C., 10 minutes
T1 construct: extracted from a rat liver and completely purified; from tissue; host or cells: rat liver
Protocol: (§1) Determination of inhibition activity against cathepsin L and cathepsin B:
One that extracted from a rat liver and completely purified in accordance with the method described in Biochem. Biophys. Res. Commun., 83, 513-520 (1978) was used as cathepsin B, and as a substrate thereof, Z-Arg-Arg-MCA was used.
(§2) Each cathepsin was diluted with a diluent (0.1% Brij 35) to adjust its concentration to 0.3 U (0.1 U: a concentration at which 1.0 nmol of MCA is released per minute at 37° C.). An activator/buffer (340 mM sodium acetate, 60 mM acetic acid, 4 mM disodium EDTA; pH 5.5; 250 μl) was added to the solution (500 μl). After the mixture was incubated for 1 minute at 30° C., a specimen solution of the predetermined concentration and a substrate solution ([…]) were added to conduct a reaction for 10 minutes. The reaction was stopped with a reaction terminator (100 mM sodium monochloroacetate, […] sodium acetate, […] acetic acid; pH 4.3; 1 ml) to determine the fluorescence intensity of aminomethylcoumarin isolated under fluorescence 460 nm in wavelength obtained by excitation at a wavelength of 370 nm using a fluorometer.

Cathepsin L = target: T2, Cathepsin L (Rattus norvegicus, UniProt P07154); test: Determination of inhibition activity against cathepsin L (substrate Z-Phe-Arg-MCA); type: biochemical; details: cathepsin L purified from rat liver, pH 5.5, 30° C., 10 minutes
T2 construct: extracted from a rat liver and completely purified; from tissue; host or cells: rat liver
Protocol: as §1
Cathepsin L that extracted from a rat liver and completely purified in accordance with the method described in J. Biochem., 84, 650-671 (1978) was used, and as a substrate thereof, Z-Phe-Arg-MCA was used.
as §2

T1 sequence (P00787 80-126 limits assumed): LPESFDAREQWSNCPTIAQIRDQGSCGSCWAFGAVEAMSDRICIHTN
T1 sequence (P00787 129-333 limits assumed): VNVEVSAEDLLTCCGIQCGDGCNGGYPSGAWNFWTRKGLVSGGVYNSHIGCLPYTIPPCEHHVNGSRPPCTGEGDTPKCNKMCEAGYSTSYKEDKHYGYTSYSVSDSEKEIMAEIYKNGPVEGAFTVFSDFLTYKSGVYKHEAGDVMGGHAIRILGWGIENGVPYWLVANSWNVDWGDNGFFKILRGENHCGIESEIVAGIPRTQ
T2 sequence (P07154 114-288 limits assumed): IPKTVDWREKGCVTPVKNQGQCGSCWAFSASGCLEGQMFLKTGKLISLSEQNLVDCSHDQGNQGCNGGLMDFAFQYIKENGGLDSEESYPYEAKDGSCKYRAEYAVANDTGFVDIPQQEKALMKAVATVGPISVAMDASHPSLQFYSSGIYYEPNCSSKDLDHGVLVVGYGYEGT
T2 sequence (P07154 291-334 limits assumed): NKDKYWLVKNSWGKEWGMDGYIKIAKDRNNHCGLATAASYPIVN

IC50 (Cathepsin B)	IC50 (Cathepsin L)	IC50 (M) Cathepsin B (Cathepsin B)	Compound
> 100000 nM	200 nM		CN(C)C(=O)[C@H](Cc1ccccc1)NC(=O)[C@H]1O[C@@H]1C(=O)Nc1cccc(CN)c1 [Compound 6, N-{L-3-trans-[3-(Aminomethyl)phenylcarbamoyl]oxirane-2-carbonyl}-L-phenylalanine dimethylamide hydrochloride]
> 100000 nM	< 100 nM		CN(C)C(=O)[C@H](Cc1ccccc1)NC(=O)[C@H]1O[C@@H]1C(=O)Nc1ccc(CN)cc1 [Compound 8, N-{L-3-trans-[4-(Aminomethyl)phenylcarbamoyl]oxirane-2-carbonyl}-L-phenylalanine dimethylamide hydrochloride]
> 100000 nM	850 nM		CN(C)C(=O)[C@H](Cc1ccccc1)NC(=O)[C@H]1O[C@@H]1C(=O)N1CCN(Cc2ccccc2)CC1 [Compound 9, N-[L-3-trans-(4-Benzylpiperazin-1-yl-carbonyl)oxirane-2-carbonyl]-L-phenylalanine dimethylamide]
	2400 nM	No inhibition	CN(C)C(=O)[C@H](Cc1ccccc1)NC(=O)[C@H]1O[C@@H]1C(=O)N(CCN)c1ccccc1 [Compound 11, N-{L-3-trans-[N-(2-Aminoethyl)-N-phenylcarbamoyl]oxirane-2-carbonyl}-L-phenylalanine dimethylamide hydrochloride]
> 100000 nM	290 nM		CN(C)C(=O)[C@H](Cc1ccccc1)NC(=O)[C@H]1O[C@@H]1C(=O)NC1CCN(Cc2ccccc2)CC1 [Compound 18, N-{L-3-trans-[(1-Benzylpiperidin-4-yl)carbamoyl]oxirane-2-carbonyl}-L-phenylalanine dimethylamide hydrochloride]
> 100000 nM	670 nM		CN(C)C(=O)[C@H](Cc1ccccc1)NC(=O)[C@H]1O[C@@H]1C(=O)NCc1ccc(N)cc1 [Compound 20, N-[L-3-trans-(4-Aminobenzylcarbamoyl)oxirane-2-carbonyl]-L-phenylalanine dimethylamide hydrochloride]
> 100000 nM	470 nM		CN(C)C(=O)[C@H](Cc1ccccc1)NC(=O)[C@H]1O[C@@H]1C(=O)NCCNC(=O)OCc1ccccc1 [Compound 22, N-{L-3-trans-[2-(Benzyloxycarbonylamino)ethylcarbamoyl]oxirane-2-carbonyl}-L-phenylalanine dimethylamide]
> 100000 nM	2.2 nM		CCc1ccc(NC(=O)[C@H]2O[C@@H]2C(=O)N[C@@H](Cc2ccccc2)C(=O)N(C)C)cc1 [Compound 29, N-[L-3-trans-(4-Ethylphenylcarbamoyl)oxirane-2-carbonyl]-L-phenylalanine dimethylamide]
> 100000 nM	45 nM		CN(C)C(=O)[C@H](Cc1ccccc1)NC(=O)[C@H]1O[C@@H]1C(=O)Nc1ccc(C(C)(C)C)cc1 [Compound 37, N-[L-3-trans-(4-t-Butylphenylcarbamoyl)oxirane-2-carbonyl]-L-phenylalanine dimethylamide]
> 100000 nM	350 nM		CN(C)C(=O)[C@H](Cc1ccccc1)NC(=O)[C@H]1O[C@@H]1C(=O)NCCc1csc(N)n1 [Compound 39, N-{L-3-trans-[2-(2-Aminothiazol-4-yl)ethylcarbamoyl]oxirane-2-carbonyl}-L-phenylalanine dimethylamide hydrochloride]
> 10000 nM	33 nM		Cc1cc(NC(=O)[C@H]2O[C@@H]2C(=O)N[C@@H](Cc2ccccc2)C(=O)N(C)C)no1 [Compound 41]
77000 nM	6 nM		CN(C)C(=O)[C@H](Cc1ccccc1)NC(=O)[C@H]1O[C@@H]1C(=O)Nc1ccc(CNC(=O)c2ccccc2)cc1 [Compound 44, N-{L-3-trans-[4-(Benzoylaminomethyl)phenylcarbamoyl]oxirane-2-carbonyl}-L-phenylalanine dimethylamide]
85000 nM	34 nM		CN(C)C(=O)[C@H](Cc1ccccc1)NC(=O)[C@H]1O[C@@H]1C(=O)NCCNc1ccc([N+](=O)[O-])cn1 [Compound 46, N-{L-3-trans-[2-(5-Nitropyridin-2-yl)aminoethylcarbamoyl]oxirane-2-carbonyl}-L-phenylalanine dimethylamide]
45000 nM	60 nM		CN(C)C(=O)[C@H](Cc1ccccc1)NC(=O)[C@H]1O[C@@H]1C(=O)Nc1ccc(Oc2ccccc2)cc1 [Compound 48, N-[L-3-trans-(4-Phenoxyphenylcarbamoyl)oxirane-2-carbonyl]-L-phenylalanine dimethylamide]
> 10000 nM	47 nM		CN(C)C(=O)[C@H](Cc1ccccc1)NC(=O)[C@H]1O[C@@H]1C(=O)NCCc1ccccn1 [Compound 56, N-{L-3-trans-[2-(Pyridin-2-yl)ethylcarbamoyl]oxirane-2-carbonyl}-L-phenylalanine dimethylamide]
> 100000 nM	< 1 nM		CNC(=O)[C@H](Cc1ccccc1)NC(=O)[C@H]1O[C@@H]1C(=O)NCCc1ccccn1 [Compound 62, N-{L-3-trans-[2-(Pyridin-2-yl)ethylcarbamoyl]oxirane-2-carbonyl}-L-phenylalanine methylamide]
	94 nM	No inhibition	CN(C)C(=O)[C@H](Cc1ccccc1)NC(=O)[C@H]1O[C@@H]1C(=O)NCCc1ccc(N)cc1 [Compound 73, N-{L-3-trans-[2-(4-Aminophenyl)ethylcarbamoyl]oxirane-2-carbonyl}-L-phenylalanine dimethylamide]
> 10000 nM	82 nM		CN(C)C(=O)[C@H](Cc1ccccc1)NC(=O)[C@H]1O[C@@H]1C(=O)NCCc1ccc(N)cn1 [Compound 77, N-{L-3-trans-[2-(5-Aminopyridin-2-yl)ethylcarbamoyl]oxirane-2-carbonyl}-L-phenylalanine dimethylamide]
> 10000 nM	46 nM		CC(=N)Nc1ccc(CCNC(=O)[C@H]2O[C@@H]2C(=O)N[C@@H](Cc2ccccc2)C(=O)N(C)C)cc1 [Compound 86, N-{L-3-trans-[2-(4-Acetoamidinophenyl)ethylcarbamoyl]oxirane-2-carbonyl}-L-phenylalanine dimethylamide hydrobromide]
> 10000 nM	97 nM		CN(C)C(=O)[C@H](Cc1ccccc1)NC(=O)[C@H]1O[C@@H]1C(=O)N1CCN(c2nccc(N)n2)CC1 [Compound 90]

Compound	IC50 (Cathepsin B)	IC50 (Cathepsin L)	IC50 (M) Cathepsin B (Cathepsin B)
CC(C)(C)OC(=O)NCc1ccc(NC(=O)[C@H]2O[C@@H]2C(=O)N[C@@H](Cc2ccccc2)C(=O)NCCc2ccccc2)cc1 [Compound 12, N-{L-3-trans-[4-(t-Butoxycarbonylaminomethyl)phenylcarbamoyl]oxirane-2-carbonyl}-L-phenylalanine-2-phenylethylamide]	> 10000 nM	2.5 nM	
CN(C)C(=O)[C@H](Cc1ccccc1)NC(=O)[C@H]1O[C@@H]1C(=O)N1CCN(C(=O)OC(C)(C)C)CC1 [Compound 15, N-[L-3-trans-(4-t-Butoxycarbonylpiperazin-1-yl-carbonyl)-oxirane-2-carbonyl]-L-phenylalanine dimethylamide]	> 100000 nM	220 nM	
